The series is described as follows: gradient 5% acetonitrile 3 min, to 50% in 2 min, to 85% in 15 min, held 3 min, 100 µL/min. As to conditions: column: Zorbax Extend-C18 2.1 x 50 mm; eluents: water / acetonitrile, 0.1% formic acid. In short, it runs like this: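 Mixtures of ~100 pure standards were chromatographed on a Zorbax Extend-C18 column (2.1 × 50 mm, 1.8 μm) at 100 μL/min using water and acetonitrile, each with 0.1% formic acid. Detection used a quadrupole time-of-flight mass spectrometer in positive and negative ionization mode, and data collection spanned 3 months. Retention time was obtained from adduct peaks picked computationally and each checked manually.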
For `CCOC(=O)c1cc2ccsc2n1CC(=O)NCCN1CCN(C)CC1`, the RP-LC retention time amounted to 600 s.

`CC(C)c1nccn1C1CN(C(=O)C(C)c2ccccc2)C1` (stereo not given): the RP-LC retention time was found to be 612 s. For `CC1CCN(S(=O)(=O)c2ccc3c(c2)CCCC(=O)N3CC(=O)N2CCc3ccccc3C2)CC1` the value was 1010 s; for `Cc1nc(-c2cccs2)c(CCC(=O)Nc2nccs2)s1`, 752 s; for `CC(C)NC(=O)c1cc2c(s1)N(CC1CC1)CCCC2`, 1080 s. `COc1ccccc1NC(=O)Cn1cccc1-c1nnc(C2CCC2)o1` displayed an RP-LC retention time of 942 s.

In turn, `CCOC(=O)C1CCN(C(=O)c2nc(-c3ccnc(N4CCCC4)c3)no2)CC1` showed an RP-LC retention time of 673 s. Molecule `Cc1nc(C)c(C(=O)Nc2ccccc2NC(=O)c2ccccn2)s1` showed an RP-LC retention time of 691 s. For `Cn1c(-c2cccc(C(=O)N3CCN(c4ccccc4)CC3)c2)nc2cccnc21` the value was 736 s; for `O=c1ccc(S(=O)(=O)N2CCOCC2)cn1Cc1cccc(F)c1`, 755 s. For `CC(=O)Nc1nc(-c2ccc(S(=O)(=O)N3CCN(c4ccccc4)CC3)cc2)cs1` the value was 960 s; for `Cc1ccc(-c2nc3cnccn3c2Nc2cccc(C(F)(F)F)c2)cc1`, 972 s; for `CS(=O)(=O)N(CC(=O)NCc1ccc2c(c1)OCCCO2)Cc1ccc(Cl)cc1`, 889 s. For `CCOc1ccc(N(C)C(=O)C2CCN(S(=O)(=O)c3ccc4c(c3)sc(=O)n4C)CC2)cc1` the value was 885 s; for `CCN1CCC(N(Cc2cccs2)C(=O)Nc2ccc(Cl)cc2)CC1`, 682 s; for `CNC(=O)c1cc[nH]c1C1CCCN(C(=O)c2cscn2)C1` (stereo not given), 591 s. The molecule `Cc1cc(Cl)ccc1S(=O)(=O)N1CCn2c(nn(CC3CC3)c2=O)C1` came in with an RP-LC retention time of 872 s. For `O=C(O)c1ccc2cc(-c3ccc(O)c(C4C5CC6CC(C5)CC4C6)c3)ccc2c1` (stereo not given) the value was 1240 s.

As for `Cc1ccn2c(NC(=O)CCc3ccccc3)c(-c3ccccc3)nc2c1`, the RP-LC retention time is 642 s.

Turning to `CCOc1ccc(NC(=O)Nc2cccc(-c3ccc(N4CCCCC4)nn3)c2)cc1`, the RP-LC retention time came out at 740 s. Molecule `CCOc1ccc(C(C)NC(=O)c2cc(NC(C)=O)cc3nc(C)ccc23)cc1` (stereo not given) displayed an RP-LC retention time of 649 s.

The molecule `O=S(=O)(c1cc(-c2nnc(C3CCCC3)o2)co1)N1CCN(C2CCCCC2)CC1` came in with an RP-LC retention time of 715 s. For `CCOC(=O)Cc1c(C)nc2c(-c3ccccc3)cnn2c1C` the value was 1000 s; for `O=C(CC1CCN(S(=O)(=O)c2ccc(Cl)s2)CC1)N1CCCCCC1`, 1000 s.

With `O=C1CC[C@]2(C(=O)N3CCCCC3)CCCC[C@H]2N1CCc1ccccc1`, the RP-LC retention time amounted to 878 s.

`Cn1c(=O)c(=O)n(C)c2cc(N3CCCCC3)c(NC(=O)CN3CCCC3)cc21` yielded an RP-LC retention time of 599 s. For `Cc1cc(C)cc(C(=O)NCc2[nH]nc3ccccc23)c1` the value was 814 s; for `O=C(NCc1[nH]nc2ccccc12)c1ccc(Br)o1`, 725 s. For `COc1ncccc1C(=O)NCCCn1nc(-c2ccc(F)cc2)ccc1=O` the value was 734 s; for `O=C(c1nccc2ccccc12)N1CCCCC1c1nc(C2CC2)no1` (stereo not given), 813 s; for `CCc1nc2cc(-c3noc(CCc4ccccc4OC)n3)ccc2o1`, 1190 s. As for `CSc1ccc(CCNC(=O)c2nnc(-c3ccc(S(=O)(=O)N4CCCC4)cc3)o2)cc1`, the RP-LC retention time is 982 s. For `Cc1ccc(-c2ccc(N3CCCC(C(=O)NCCC4=CCCCC4)C3)nn2)cc1` (stereo not given) the value was 855 s; for `CCc1nn2c(CNS(=O)(=O)c3cc(F)cc(F)c3)c(-c3ccccc3)nc2s1`, 963 s; for `O=C1COc2cc(S(=O)(=O)N3CCCC3C(=O)Nc3ccc4c(c3)OCCO4)c(Cl)cc2N1` (stereo not given), 734 s. For `CCN(CC)S(=O)(=O)c1ccc2c(c1)cc(C(=O)NCCC(C)N1CCCC1)n2C` (stereo not given) the value was 658 s. For `CN(Cc1ccccc1)C(=O)c1ccc2c(c1)CCCN2S(C)(=O)=O` the value was 841 s; for `CCOc1ccc2nc(NC3=NCN(CCCOC)CN3)nc(C)c2c1`, 668 s; for `CC(C)Cc1ccc(S(=O)(=O)N(CCN2CCCCC2C)CC(=O)N2CCNCC2)cc1` (stereo not given), 621 s. Take `Cc1ccc(-c2nnc(Cc3nc(-c4ccccn4)no3)o2)cc1F`: the RP-LC retention time amounted to 822 s. For `CCC1CN(C(=O)N2CCC(C(=O)NCCCN3CCCC3=O)CC2)c2ccccc2O1` (stereo not given) the value was 709 s; for `CCC(C)NC(=O)c1cnn(-c2ccc(-c3nc(C(C)C)no3)cn2)c1C` (stereo not given), 1000 s. `O=S(=O)(c1ccccc1)c1nnn2c1nc(NCc1ccc(F)cc1)c1sccc12` yielded an RP-LC retention time of 837 s. For `Cc1ccc(-c2noc(Cn3ccnc3)n2)cc1C` the value was 659 s; for `CCn1nccc1C(=O)Nc1ccc2c(c1)CCC(=O)N2C`, 644 s. For `COc1ccccc1/C=C/c1nc(C#N)c(NCCCN(C)C)o1` the value was 658 s; for `CCOC(=O)c1c(C)n(C)c2cc(Br)c(OC)cc12`, 1090 s; for `O=C(CCCn1c(=O)c2cccn2c2ccc(F)cc21)N1CCN(C(=O)c2ccco2)CC1`, 745 s. `CCn1cc(C(=O)Nc2cccc(Cl)c2)c2cccnc21`: the RP-LC retention time was determined as 938 s.

Molecule `COC(=O)C1=CN(C2CC2)c2cc(N3CCOCC3)c(F)cc2S1(=O)=O` came in with an RP-LC retention time of 736 s.

Turning to `COC(=O)c1c(N)n(-c2cccc(F)c2)c2nc3ccccc3nc12`, the RP-LC retention time stood at 685 s. For `CCn1ccc(C(=O)N2CC(n3cc(COC)nn3)C2)n1` the value was 605 s. For `COC(=O)C1=CN(c2ccc(N(C)C)cc2)c2ccc(F)cc2S1(=O)=O` the value was 730 s; for `O=C(Cc1nc(-c2ccccn2)n[nH]1)Nc1cc(F)ccc1F`, 652 s. For `CC1CC(C)CN(CCCNC(=O)Cn2c(=O)c3cccn3c3ccccc32)C1` (stereo not given) the value was 620 s; for `C[C@H](N)C(=O)N[C@@H](C)C(=O)N[C@@H](Cc1ccccc1)C(=O)CCl`, 638 s. Take `O=C(Nc1ccccc1NC(=O)c1ccccc1C(F)(F)F)c1cccs1`: the RP-LC retention time came to 835 s.

For the molecule `O=C(CSCc1ccccc1)NCC1CCN(C(=O)Nc2ccc(F)cc2)CC1`, the RP-LC retention time amounted to 770 s. For `Cc1ccc(Nc2c(-c3ccc4c(c3)OCO4)nc3cnccn23)c(Br)c1` the value was 1000 s; for `O=C(NC1CCN(c2ccc(F)cc2)C1=O)c1ccccc1C(F)(F)F` (stereo not given), 823 s; for `COc1ccccc1OCC(=O)N1CCN(c2cc(C(C)C)n3cnnc3n2)CC1`, 626 s. For `CCCn1c(=O)sc2cc(S(=O)(=O)N3CCC(C(=O)N4CCc5ccccc5C4)CC3)ccc21` the value was 989 s; for `CCCn1cc(C(=O)NCCN(C)C)c(S(=O)(=O)N2CCN(c3cccc(Cl)c3)CC2)n1`, 745 s; for `COC(=O)CNC(=O)C1c2ccccc2C(=O)N(Cc2ccccc2)C12CCCC2` (stereo not given), 857 s.

In the case of `CC1=C(c2ccc(F)cc2)S(=O)(=O)N=C1N1CCCN(C(=O)c2ccsc2)CC1`, the RP-LC retention time is 802 s. In the case of `CCc1ccc(C2=C(C)C(N3CCC(NC(=O)CCC(C)C)CC3)=NS2(=O)=O)cc1`, the RP-LC retention time came to 935 s. For `Cc1cc(C)cc(Nc2c(-c3ccc(N4CCOCC4)cc3)nc3cnccn23)c1`, the RP-LC retention time came to 895 s. For `O=C(Cn1cnc2nc(N3CCCC(C(=O)NC4CC4)C3)sc2c1=O)Nc1ccc2c(c1)OCO2` (stereo not given) the value was 659 s. For `O=C(NCCc1csc(-c2ccccc2)n1)C1CCN(C(=O)c2ccc(F)c(F)c2)CC1` the value was 816 s; for `O=C(Nc1cnc(N2CCCC2)nc1)c1ccccc1C(F)(F)F`, 740 s; for `Cc1ccc(C(=O)NC2CCN(c3ccccc3)C2=O)c(C)c1` (stereo not given), 797 s. `CCN(CC)CCn1c(NCc2ccccc2OC)nc2ccccc21` returned an RP-LC retention time of 1130 s.

Regarding `Cc1ccc(NC(=O)N2CCC(CCNC(=O)C3(c4ccccc4)CC3)CC2)cc1F`, the RP-LC retention time amounted to 928 s. For `O=C(NC1CCCC1)C1c2cccn2CC(=O)N1c1cccc(Cl)c1` (stereo not given) the value was 870 s; for `CC(C)CCNC(=O)C1(C)Cn2nc(C(=O)NCCc3c[nH]c4ccccc34)cc2C(=O)N1C` (stereo not given), 786 s. As for `CCOc1nc2ccccc2nc1N1CCCC(C(=O)Nc2cc(C)cc(C)c2)C1` (stereo not given), the RP-LC retention time is 1320 s.

The molecule `Cc1ccc(NC(=O)C2CC(=O)N(c3ccc4c(c3)CCN4C(=O)C3CC3)C2)c(C)c1` (stereo not given) showed an RP-LC retention time of 805 s. For `Cn1nc(N2CCC(NC(=O)CCn3cnnn3)CC2)ccc1=O` the value was 566 s; for `Cc1ccc(-c2nnc(CC(=O)NC3CCCC3)o2)cc1`, 797 s. For `Cc1ccccc1Cn1cc(-c2ccncc2)cc1C(=O)NC(C)c1ccccn1` (stereo not given) the value was 600 s.

Source of the values: the METLIN SMRT retention time set (Domingo-Almenara et al. 2019).
